# Measured values as given in ChEMBL document CHEMBL4145521, “Regioselective synthesis of 3,4-diaryl-5-unsubstituted isoxazoles, analogues of natural cytostatic combretastatin A4” (Eur J Med Chem, 2018).
# Columns and labels:
# Assay type in all cases: functional
# [1] = system: OVCAR-5; assay: Cytotoxicity against human OVCAR5 cells assessed as cell growth at 100 uM incubated for 48 hrs by sulforhodamine B assay relative to control; conditions: OVCAR-5, 48 h, read-out: Activity
# [2] = system: HCC 2998; assay: Cytotoxicity against human HCC2998 cells assessed as cell growth at 10 uM incubated for 48 hrs by sulforhodamine B assay relative to control; conditions: HCC 2998, 48 h, read-out: Activity
# [3] = system: MDA-MB-231; assay: Cytotoxicity against human MDA-MB-231 cells assessed as cell growth at 1 uM incubated for 48 hrs by sulforhodamine B assay relative to control; conditions: MDA-MB-231, 48 h, read-out: Activity
# [4] = system: DU-145; assay: Cytotoxicity against human DU145 cells assessed as cell growth at 10 uM incubated for 48 hrs by sulforhodamine B assay relative to control; conditions: DU-145, 48 h, read-out: Activity
# [5] = system: HOP-92; assay: Cytotoxicity against human HOP92 cells assessed as cell growth at 10 uM incubated for 48 hrs by sulforhodamine B assay relative to control; conditions: HOP-92, 48 h, read-out: Activity
# [6] = system: MCF7; assay: Cytotoxicity against human MCF7 cells assessed as cell growth at 1 uM incubated for 48 hrs by sulforhodamine B assay relative to control; conditions: MCF7, 48 h, read-out: Activity
# [7] = system: NCI-H460; assay: Cytotoxicity against human NCI-H460 cells assessed as cell growth at 0.01 uM incubated for 48 hrs by sulforhodamine B assay relative to control; conditions: NCI-H460, 48 h, read-out: Activity
# [8] = system: SK-OV-3; assay: Cytotoxicity against human SKOV3 cells assessed as cell growth at 10 uM incubated for 48 hrs by sulforhodamine B assay relative to control; conditions: SK-OV-3, 48 h, read-out: Activity
# [9] = system: SK-MEL-2; assay: Cytotoxicity against human SK-MEL-2 cells assessed as cell growth at 1 uM incubated for 48 hrs by sulforhodamine B assay relative to control; conditions: SK-MEL-2, 48 h, read-out: Activity
# [10] = system: SW-620; assay: Cytotoxicity against human SW620 cells assessed as cell growth at 0.1 uM incubated for 48 hrs by sulforhodamine B assay relative to control; conditions: SW-620, 48 h, read-out: Activity
# [11] = system: SR; assay: Cytotoxicity against human SR cells assessed as cell growth at 0.1 uM incubated for 48 hrs by sulforhodamine B assay relative to control; conditions: read-out: Activity
# [12] = system: CCRF-CEM; assay: Cytotoxicity against human CCRF-CEM cells assessed as cell growth at 1 uM incubated for 48 hrs by sulforhodamine B assay relative to control; conditions: read-out: Activity
# [13] = system: SR; assay: Cytotoxicity against human SR cells assessed as cell growth at 0.01 uM incubated for 48 hrs by sulforhodamine B assay relative to control; conditions: read-out: Activity
# [14] = system: HCC 2998; assay: Cytotoxicity against human HCC2998 cells assessed as cell growth at 0.01 uM incubated for 48 hrs by sulforhodamine B assay relative to control; conditions: HCC 2998, 48 h, read-out: Activity
# [15] = system: SNB-75; assay: Cytotoxicity against human SNB75 cells incubated for 48 hrs by sulforhodamine B assay; conditions: SNB-75, 48 h
# [16] = system: SK-MEL-5; assay: Cytotoxicity against human SK-MEL-5 cells incubated for 48 hrs by sulforhodamine B assay; conditions: SK-MEL-5, 48 h
# [17] = system: OVCAR-8; assay: Cytotoxicity against human OVCAR8 cells assessed as cell growth at 10 uM incubated for 48 hrs by sulforhodamine B assay relative to control; conditions: OVCAR-8, 48 h, read-out: Activity
# [18] = system: T47D; assay: Cytotoxicity against human T47D cells assessed as cell growth at 0.1 uM incubated for 48 hrs by sulforhodamine B assay relative to control; conditions: read-out: Activity
# [19] = system: Hs-578T; assay: Cytotoxicity against human Hs 578T cells assessed as cell growth at 1 uM incubated for 48 hrs by sulforhodamine B assay relative to control; conditions: read-out: Activity
# [20] = system: OVCAR-5; assay: Cytotoxicity against human OVCAR5 cells incubated for 48 hrs by sulforhodamine B assay; conditions: OVCAR-5, 48 h
# [21] = system: NCI-H522; assay: Cytotoxicity against human NCI-H522 cells assessed as cell growth at 0.01 uM incubated for 48 hrs by sulforhodamine B assay relative to control; conditions: NCI-H522, 48 h, read-out: Activity
# [22] = system: UACC-62; assay: Cytotoxicity against human UACC62 cells assessed as cell growth at 0.01 uM incubated for 48 hrs by sulforhodamine B assay relative to control; conditions: UACC-62, 48 h, read-out: Activity
# [23] = system: DU-145; assay: Cytotoxicity against human DU145 cells assessed as cell growth at 1 uM incubated for 48 hrs by sulforhodamine B assay relative to control; conditions: DU-145, 48 h, read-out: Activity
# [24] = system: MDA-MB-468; assay: Cytotoxicity against human MDA-MB-468 cells assessed as cell growth at 0.01 uM incubated for 48 hrs by sulforhodamine B assay relative to control; conditions: MDA-MB-468, 48 h, read-out: Activity
# [25] = system: MDA-MB-435; assay: Cytotoxicity against human MDA-MB-435 cells assessed as cell growth at 0.01 uM incubated for 48 hrs by sulforhodamine B assay relative to control; conditions: MDA-MB-435, 48 h, read-out: Activity
# [26] = system: IGROV-1; assay: Cytotoxicity against human IGROV1 cells incubated for 48 hrs by sulforhodamine B assay; conditions: IGROV-1, 48 h
# [27] = system: ACHN; assay: Cytotoxicity against human ACHN cells assessed as cell growth at 0.01 uM incubated for 48 hrs by sulforhodamine B assay relative to control; conditions: read-out: Activity
# [28] = system: MDA-MB-468; assay: Cytotoxicity against human MDA-MB-468 cells assessed as cell growth at 100 uM incubated for 48 hrs by sulforhodamine B assay relative to control; conditions: MDA-MB-468, 48 h, read-out: Activity
# [29] = system: SF-539; assay: Cytotoxicity against human SF539 cells assessed as cell growth at 100 uM incubated for 48 hrs by sulforhodamine B assay relative to control; conditions: SF-539, 48 h, read-out: Activity
# [30] = system: SF-268; assay: Cytotoxicity against human SF268 cells assessed as cell growth at 10 uM incubated for 48 hrs by sulforhodamine B assay relative to control; conditions: SF-268, 48 h, read-out: Activity
# [31] = system: A549; assay: Cytotoxicity against human A549/ATCC cells incubated for 48 hrs by sulforhodamine B assay; conditions: A549, 48 h
# [32] = read-out: LC50 (the source's name)
# [33] = read-out: pLC50 (the source's name) (converted)
compound,measurement,setting,value
COc1ccc(-c2nocc2-c2cc(OC)c(OC)c(OC)c2)cc1,growth at 100 µM,[1],21%
same,growth at 10 µM,[2],25%
same,growth at 1 µM,[3],38%
same,growth at 10 µM,[4],11%
same,growth at 10 µM,[5],49%
same,growth at 1 µM,[6],19%
same,growth at 0.01 µM,[7],105%
same,growth at 10 µM,[8],32%
same,growth at 1 µM,[9],28%
same,growth at 0.1 µM,[10],32%
same,growth at 0.1 µM,[11],42%
same,growth at 1 µM,[12],24%
same,growth at 0.01 µM,[13],99%
same,growth at 0.01 µM,[14],97%
same,GI50,[15]; read-out: GI50,0.0772 µM
same,CC50,[15]; [32],> 100 µM
same,TGI,[15]; read-out: TGI,> 100 µM
same,GI50,[15]; read-out: pGI50 (converted),0.0776 µM
same,CC50,[15]; [33],> 100 µM
same,TGI,[15]; read-out: pTGI,> 100 µM
same,GI50,[16]; read-out: GI50,0.0715 µM
same,LC50 (concentration killing 50% of cells),[16]; read-out: LC50,27.7 µM
same,TGI,[16]; read-out: TGI,5.25 µM
same,GI50,[16]; read-out: pGI50 (converted),0.0708 µM
same,LC50 (concentration killing 50% of cells),[16]; read-out: pLC50 (converted),27.5 µM
same,TGI,[16]; read-out: pTGI,5.25 µM
same,growth at 10 µM,[17],25%
same,growth at 0.1 µM,[18],43%
same,growth at 1 µM,[19],31%
same,GI50,[20]; read-out: GI50,1.65 µM
same,LC50,[20]; read-out: LC50,> 100 µM
same,TGI,[20]; read-out: TGI,> 100 µM
same,GI50,[20]; read-out: pGI50 (converted),1.66 µM
same,LC50,[20]; read-out: pLC50 (converted),> 100 µM
same,TGI,[20]; read-out: pTGI,> 100 µM
same,growth at 0.01 µM,[21],84%
same,growth at 0.01 µM,[22],90%
same,growth at 1 µM,[23],17%
same,growth at 0.01 µM,[24],94%
same,growth at 0.01 µM,[25],79%
same,GI50,[26]; read-out: GI50,0.346 µM
same,CC50,[26]; [32],> 100 µM
same,TGI,[26]; read-out: TGI,> 100 µM
same,GI50,[26]; read-out: pGI50 (converted),0.347 µM
same,CC50,[26]; [33],> 100 µM
same,TGI,[26]; read-out: pTGI,> 100 µM
same,growth at 0.01 µM,[27],94%
same,growth at 100 µM,[28],-19%
same,growth at 100 µM,[29],-15%
same,growth at 10 µM,[30],27%
same,GI50,[31]; read-out: GI50,0.0869 µM
same,LC50,[31]; read-out: LC50,> 100 µM
same,TGI,[31]; read-out: TGI,> 100 µM
same,GI50,[31]; read-out: pGI50 (converted),0.0871 µM
same,LC50,[31]; read-out: pLC50 (converted),> 100 µM
same,TGI,[31]; read-out: pTGI,> 100 µM
